Assay results published in US20230150974A1 (Foghorn Therapeutics Inc., priority 2020, published 2023).

Assays:
[1] = molecular target: T1, HiBiT-BRM (Homo sapiens, UniProt P51531); experiment: HiBiT-BRM cell-based degradation assay (Nano-Glo HiBiT Lytic Detection); conditions: HeLa cells expressing HiBiT-BRM, 24 h; for DC50: read-out: BRM HiBit Degradation IC50
T1 construct: expressed in transfected cells
Outline: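 HeLa cells stably expressing HiBiT-tagged BRM were treated for 24 h, then lysed with LgBiT-containing Nano-Glo reagent and luminescence read. % degradation scaled between DMSO (high control) and 2 μM reference BRM/BRG1 degrader (low control).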

[2] = molecular target: T2, HiBit-BRG1 (Homo sapiens, UniProt P51532); experiment: HiBit-BRG1 cell-based degradation assay (Nano-Glo HiBiT Lytic Detection); conditions: HeLa cells expressing HiBit-BRG1 and LgBit, 24 h; for DC50: read-out: BRG1 HiBit Degradation IC50; for Dmax: read-out: BRG1 HiBit Degradation Maximum (%)
T2 construct: expressed in transfected cells
T2 sequence (P51532 whole entry): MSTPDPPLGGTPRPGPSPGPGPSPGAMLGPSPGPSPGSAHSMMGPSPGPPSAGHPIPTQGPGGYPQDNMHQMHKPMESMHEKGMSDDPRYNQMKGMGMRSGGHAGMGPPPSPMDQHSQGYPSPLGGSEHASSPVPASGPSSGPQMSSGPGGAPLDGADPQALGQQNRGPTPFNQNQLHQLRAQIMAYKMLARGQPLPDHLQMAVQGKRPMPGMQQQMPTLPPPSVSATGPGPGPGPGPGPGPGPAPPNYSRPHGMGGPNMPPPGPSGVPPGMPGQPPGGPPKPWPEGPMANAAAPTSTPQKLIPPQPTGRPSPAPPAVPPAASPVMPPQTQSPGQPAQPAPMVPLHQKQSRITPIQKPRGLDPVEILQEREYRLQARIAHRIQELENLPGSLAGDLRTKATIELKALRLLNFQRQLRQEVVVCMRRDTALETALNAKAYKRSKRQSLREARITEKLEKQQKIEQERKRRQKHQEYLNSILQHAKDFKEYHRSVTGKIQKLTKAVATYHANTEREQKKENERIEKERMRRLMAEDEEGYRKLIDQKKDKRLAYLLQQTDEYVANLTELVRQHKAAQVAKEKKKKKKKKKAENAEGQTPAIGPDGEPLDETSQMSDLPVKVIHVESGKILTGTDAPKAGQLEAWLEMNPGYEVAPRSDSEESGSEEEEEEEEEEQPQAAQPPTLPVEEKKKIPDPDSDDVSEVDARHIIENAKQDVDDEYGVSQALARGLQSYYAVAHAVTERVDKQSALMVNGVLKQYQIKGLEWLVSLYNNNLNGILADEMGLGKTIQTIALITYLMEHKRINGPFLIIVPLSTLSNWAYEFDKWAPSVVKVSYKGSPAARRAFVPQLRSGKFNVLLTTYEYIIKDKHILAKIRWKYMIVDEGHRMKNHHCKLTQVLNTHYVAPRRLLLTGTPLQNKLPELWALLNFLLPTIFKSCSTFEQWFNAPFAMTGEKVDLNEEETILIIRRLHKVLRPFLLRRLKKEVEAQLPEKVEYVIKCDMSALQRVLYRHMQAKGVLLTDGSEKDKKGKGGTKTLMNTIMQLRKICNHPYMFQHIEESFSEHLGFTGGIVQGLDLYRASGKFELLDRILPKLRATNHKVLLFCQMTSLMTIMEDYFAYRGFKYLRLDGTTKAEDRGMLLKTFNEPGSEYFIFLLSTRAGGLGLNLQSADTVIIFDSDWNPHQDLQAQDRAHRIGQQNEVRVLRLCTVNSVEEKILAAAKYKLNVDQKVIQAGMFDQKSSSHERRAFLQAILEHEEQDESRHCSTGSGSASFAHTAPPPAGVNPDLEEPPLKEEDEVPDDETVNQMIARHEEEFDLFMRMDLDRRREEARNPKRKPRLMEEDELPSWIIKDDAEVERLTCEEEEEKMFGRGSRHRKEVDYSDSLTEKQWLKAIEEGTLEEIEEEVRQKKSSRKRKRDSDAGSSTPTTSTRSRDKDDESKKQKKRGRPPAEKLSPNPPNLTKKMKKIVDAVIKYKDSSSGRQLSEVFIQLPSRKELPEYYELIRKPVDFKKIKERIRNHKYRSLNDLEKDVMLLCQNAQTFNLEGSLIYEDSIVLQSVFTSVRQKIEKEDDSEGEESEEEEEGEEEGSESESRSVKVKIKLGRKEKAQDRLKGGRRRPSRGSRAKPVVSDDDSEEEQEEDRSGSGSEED
Outline: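 Seed 5000 HeLa HiBit-BRG1/LgBit cells per well; treat 24 h; equilibrate 15 min at room temperature; add Nano-Glo HiBiT lytic reagent, shake 10 min, read luminescence. Percent degradation is scaled between DMSO and 2 μM reference degrader wells.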

T1 sequence (P51531 whole entry): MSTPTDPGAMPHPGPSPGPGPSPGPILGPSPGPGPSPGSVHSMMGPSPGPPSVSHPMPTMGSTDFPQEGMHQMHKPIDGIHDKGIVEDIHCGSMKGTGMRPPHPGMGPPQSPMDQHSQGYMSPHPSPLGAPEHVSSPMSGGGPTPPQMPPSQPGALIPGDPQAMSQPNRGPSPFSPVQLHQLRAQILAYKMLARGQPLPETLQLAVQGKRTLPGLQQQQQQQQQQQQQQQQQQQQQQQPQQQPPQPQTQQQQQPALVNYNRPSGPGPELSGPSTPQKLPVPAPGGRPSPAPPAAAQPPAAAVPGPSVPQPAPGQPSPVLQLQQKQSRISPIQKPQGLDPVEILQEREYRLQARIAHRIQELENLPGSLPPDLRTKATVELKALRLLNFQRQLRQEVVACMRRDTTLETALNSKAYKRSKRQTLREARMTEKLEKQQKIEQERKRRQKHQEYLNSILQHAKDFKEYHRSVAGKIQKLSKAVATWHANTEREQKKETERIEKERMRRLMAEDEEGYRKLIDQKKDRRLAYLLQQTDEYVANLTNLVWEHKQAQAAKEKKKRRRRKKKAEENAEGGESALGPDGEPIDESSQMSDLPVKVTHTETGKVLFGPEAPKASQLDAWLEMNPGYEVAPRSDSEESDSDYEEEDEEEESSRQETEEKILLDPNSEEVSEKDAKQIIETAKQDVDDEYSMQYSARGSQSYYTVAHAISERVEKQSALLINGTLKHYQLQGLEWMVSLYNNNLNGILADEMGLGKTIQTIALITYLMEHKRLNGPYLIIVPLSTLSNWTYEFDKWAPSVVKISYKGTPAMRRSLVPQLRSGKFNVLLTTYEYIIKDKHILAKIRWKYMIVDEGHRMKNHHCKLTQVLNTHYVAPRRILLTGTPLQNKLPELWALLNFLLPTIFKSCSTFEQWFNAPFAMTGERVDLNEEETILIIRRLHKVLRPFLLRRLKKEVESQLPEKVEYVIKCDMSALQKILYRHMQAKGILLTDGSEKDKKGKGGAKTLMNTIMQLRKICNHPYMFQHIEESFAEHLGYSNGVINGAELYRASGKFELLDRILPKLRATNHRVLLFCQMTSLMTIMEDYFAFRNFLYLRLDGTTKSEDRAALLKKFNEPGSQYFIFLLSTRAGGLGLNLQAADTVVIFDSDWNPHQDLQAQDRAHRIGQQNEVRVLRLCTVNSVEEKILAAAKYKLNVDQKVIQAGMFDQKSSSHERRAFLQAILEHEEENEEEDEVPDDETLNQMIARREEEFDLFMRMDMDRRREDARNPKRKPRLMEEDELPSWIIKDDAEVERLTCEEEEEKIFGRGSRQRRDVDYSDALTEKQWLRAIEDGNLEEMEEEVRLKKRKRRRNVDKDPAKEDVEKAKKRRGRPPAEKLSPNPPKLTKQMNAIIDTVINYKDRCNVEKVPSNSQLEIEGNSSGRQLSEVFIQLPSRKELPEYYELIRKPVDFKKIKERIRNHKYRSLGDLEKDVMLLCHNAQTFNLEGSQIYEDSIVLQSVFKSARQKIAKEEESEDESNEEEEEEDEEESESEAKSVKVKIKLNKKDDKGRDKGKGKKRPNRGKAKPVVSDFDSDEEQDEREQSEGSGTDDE

SMILES | BRM HiBit Degradation Maximum (%) [1] | DC50 [1] [µM] | DC50 [2] [µM] | Dmax [2] [%]
Cc1ncsc1-c1ccc([C@H](C)NC(=O)[C@@H]2C[C@@H](O)CN2C(=O)[C@@H](NC(=O)CN2CCC(OC3CCN(CCC(=O)NCc4ccc(CCOc5cc(-c6ccccc6O)nnc5N)cc4)CC3)CC2)C(C)(C)C)cc1 [Compound 258, (2S,4R)-1-((S)-2-(2-(4-((1-(3-((4-(2-((3-amino-6-(2-hydroxyphenyl)pyridazin-4-yl)oxy)ethyl)benzyl)amino)-3-oxopropyl)piperidin-4-yl)oxy)piperidin-1-yl)acetamido)-3,3-dimethylbutanoyl)-4-hydroxy-N-((S)-1-(4-(4-methylthiazol-5-yl)phenyl)ethyl)pyrrolidine-2-carboxamide] | A (“A” indicates maximum degradation ≥75%) | > 0.1 | > 1 | > 50
Cc1ncsc1-c1ccc([C@H](C)NC(=O)[C@@H]2C[C@@H](O)CN2C(=O)[C@@H](NC(=O)CCN2C[C@H]3CN(CCC(=O)NCc4ccc(CCOc5cc(-c6ccccc6O)nnc5N)cc4)C[C@H]3C2)C(C)(C)C)cc1 [Compound 259, (2S,4R)-1-((2S)-2-(3-(5-(3-((4-(2-((3-amino-6-(2-hydroxyphenyl)pyridazin-4-yl)oxy)ethyl)benzyl)amino)-3-oxopropyl)hexahydropyrrolo[3,4-c]pyrrol-2(1H)-yl)propanamido)-3,3-dimethylbutanoyl)-4-hydroxy-N-((S)-1-(4-(4-methylthiazol-5-yl)phenyl)ethyl)pyrrolidine-2-carboxamide] | C (“C” indicates maximum degradation <50%) | > 1 | > 1 | < 50
Cc1ncsc1-c1ccc(CNC(=O)[C@@H]2C[C@@H](O)CN2C(=O)[C@@H](NC(=O)CCCCN2CCN(CCC(=O)NCc3ccc(CCOc4cc(-c5ccccc5O)nnc4N)cc3)CC2)C(C)(C)C)cc1 [Compound 260, (2S,4R)-1-((S)-2-(5-(4-(3-((4-(2-((3-amino-6-(2-hydroxyphenyl)pyridazin-4-yl)oxy)ethyl)benzyl)amino)-3-oxopropyl)piperazin-1-yl)pentanamido)-3,3-dimethylbutanoyl)-4-hydroxy-N-(4-(4-methylthiazol-5-yl)benzyl)pyrrolidine-2-carboxamide] | C (“C” indicates maximum degradation <50%) | > 1 | > 1 | < 50
Cc1ncsc1-c1ccc([C@H](C)NC(=O)[C@@H]2C[C@@H](O)CN2C(=O)[C@@H](NC(=O)CCCCCCCCCCCCCCNCc2ccc(CCOc3cc(-c4ccccc4O)nnc3N)cc2)C(C)(C)C)cc1 [Compound 261, (2S,4R)-1-((S)-2-(15-((4-(2-((3-amino-6-(2-hydroxyphenyl)pyridazin-4-yl)oxy)ethyl)benzyl)amino)pentadecanamido)-3,3-dimethylbutanoyl)-4-hydroxy-N-((S)-1-(4-(4-methylthiazol-5-yl)phenyl)ethyl)pyrrolidine-2-carboxamide] | A (“A” indicates maximum degradation ≥75%) | > 0.01 | > 1 | > 50
Cc1ncsc1-c1ccc([C@H](C)NC(=O)[C@@H]2C[C@@H](O)CN2C(=O)[C@@H](NC(=O)CCCCN2CCN(CCC(=O)NCc3ccc(CCOc4cc(-c5ccccc5O)nnc4N)cc3)CC2)C(C)(C)C)cc1 [Compound 262, (2S,4R)-1-((S)-2-(5-(4-(3-((4-(2-((3-amino-6-(2-hydroxyphenyl)pyridazin-4-yl)oxy)ethyl)benzyl)amino)-3-oxopropyl)piperazin-1-yl)pentanamido)-3,3-dimethylbutanoyl)-4-hydroxy-N-((S)-1-(4-(4-methylthiazol-5-yl)phenyl)ethyl)pyrrolidine-2-carboxamide] | B (“B” indicates maximum degradation ≥50%) | > 1 | > 1 | < 50
Cc1ncsc1-c1ccc([C@H](C)NC(=O)[C@@H]2C[C@@H](O)CN2C(=O)[C@@H](NC(=O)CCCCCCCCCCN2CCN(Cc3ccc(CCOc4cc(-c5ccccc5O)nnc4N)cc3)CC2)C(C)(C)C)cc1 [Compound 263] | A (“A” indicates maximum degradation ≥75%) | > 0.01 | > 1 | < 50
Cc1ncsc1-c1ccc([C@H](C)NC(=O)[C@@H]2C[C@@H](O)CN2C(=O)[C@@H](NC(=O)CCCCCCCCCCN2C[C@@H]3CN(Cc4ccc(CCOc5cc(-c6ccccc6O)nnc5N)cc4)C[C@@H]3C2)C(C)(C)C)cc1 [Compound 264, (2S,4R)-1-((2S)-2-(11-(5-(4-(2-((3-amino-6-(2-hydroxyphenyl)pyridazin-4-yl)oxy)ethyl)benzyl)hexahydropyrrolo[3,4-c]pyrrol-2(1H)-yl)undecanamido)-3,3-dimethylbutanoyl)-4-hydroxy-N-((S)-1-(4-(4-methylthiazol-5-yl)phenyl)ethyl)pyrrolidine-2-carboxamide] | A (“A” indicates maximum degradation ≥75%) | > 0.01 | > 0.1 | > 50
Cc1ncsc1-c1ccc([C@H](C)NC(=O)[C@@H]2C[C@@H](O)CN2C(=O)[C@@H](NC(=O)CCN2CCN(CCCCC(=O)NCc3ccc(CCOc4cc(-c5ccccc5O)nnc4N)cc3)CC2)C(C)(C)C)cc1 [Compound 265, (2S,4R)-1-((S)-2-(3-(4-(5-((4-(2-((3-amino-6-(2-hydroxyphenyl)pyridazin-4-yl)oxy)ethyl)benzyl)amino)-5-oxopentyl)piperazin-1-yl)propanamido)-3,3-dimethylbutanoyl)-4-hydroxy-N-((S)-1-(4-(4-methylthiazol-5-yl)phenyl)ethyl)pyrrolidine-2-carboxamide] | B (“B” indicates maximum degradation ≥50%) | > 1 | > 1 | < 50
Cc1ncsc1-c1ccc(CNC(=O)[C@@H]2C[C@@H](O)CN2C(=O)[C@@H](NC(=O)CN2CCC3(CCN(CCC(=O)NCc4ccc(CCOc5cc(-c6ccccc6O)nnc5N)cc4)CC3)CC2)C(C)(C)C)cc1 [Compound 266, (2S,4R)-1-((S)-2-(2-(9-(3-((4-(2-((3-amino-6-(2-hydroxyphenyl)pyridazin-4-yl)oxy)ethyl)benzyl)amino)-3-oxopropyl)-3,9-diazaspiro[5.5]undecan-3-yl)acetamido)-3,3-dimethylbutanoyl)-4-hydroxy-N-(4-(4-methylthiazol-5-yl)benzyl)pyrrolidine-2-carboxamide] | A (“A” indicates maximum degradation ≥75%) | > 1 | > 1 | < 50
Cc1ncsc1-c1ccc([C@H](C)NC(=O)[C@@H]2C[C@@H](O)CN2C(=O)[C@@H](NC(=O)CN2CCC3(CCN(CCC(=O)NCc4ccc(CCOc5cc(-c6ccccc6O)nnc5N)cc4)CC3)CC2)C(C)(C)C)cc1 [Compound 267, (2S,4R)-1-((S)-2-(2-(9-(3-((4-(2-((3-amino-6-(2-hydroxyphenyl)pyridazin-4-yl)oxy)ethyl)benzyl)amino)-3-oxopropyl)-3,9-diazaspiro[5.5]undecan-3-yl)acetamido)-3,3-dimethylbutanoyl)-4-hydroxy-N-((S)-1-(4-(4-methylthiazol-5-yl)phenyl)ethyl)pyrrolidine-2-carboxamide] | A (“A” indicates maximum degradation ≥75%) | > 1 | > 1 | < 50
